# Experimental data taken from US20240238239A1, “METHODS AND COMPOSITIONS FOR PO[…] CELL THERAPIES” (Ojai Energetics PBC, priority 2016, published 2024).
# Tested on: mice with spinal cord injuries
# Assay: Neural stem cell treatment after spinal cord injury (BMS scores, rotarod treadmill tests)
# Assay type: in vivo, mouse
# Conditions: neural stem cells pre-treated with cannabidiol 1-50 μM for 10 days plus diet supplemented with microencapsulated hemp oil composition; combined treatment
# Description: Mouse neural stem cells expressing green fluorescent protein (GFP) under the control of a constitutive promoter are treated with either cannabidiol (1 μM, 5 μM, 10 μM or 50 μM) or vehicle control for 10 days. The cells are then transplanted directly into the spinal cords of mice with spinal cord injuries. Mice are maintained on a control diet or a diet supplemented with a microencapsulated hemp oil composition comprising cannabinoids, including cannabidiol, at concentrations similar to those used in the cell culture media. Mice are monitored daily for signs of spinal cord recovery evaluations of locomotor function based on Basso Mouse Scale (BMS) scores, a locomotor rating scale based on the frequency analyses of seven locomotor categories, and rotarod treadmill tests. Two months after the stem cell treatment the mice are sacrificed and the spinal cords are histologically examined.
structure (smiles),measurement,value
C=C(C)[C@@H]1CCC(C)=C[C@H]1c1c(O)cc(CCCCC)cc1O [cannabidiol],spinal cord recovery (locomotor function),more rapid and more robust recovery
